Test results from ChEMBL document CHEMBL1130171, “Structure--activity studies for alpha-amino-3-hydroxy-5-methyl-4-isoxazolepropanoic acid receptors: acidic hydroxyphenylalanines” (J Med Chem, 1997).

Tests used:
[1] = Protolysis constant at an ionic strength of 0.1 M.; assay type: ADME
Rattus norvegicus [2] = species on record: Rattus norvegicus; experiment: In vitro stimulation of norepinephrine release from hippocampal nerve endings.; assay type: functional; settings: Hippocampus
[3] = molecular target: Glutamate receptor ionotropic, AMPA (Rattus norvegicus, UniProt P19490+P19491+P19492+P19493); experiment: Inhibition of specific binding of [3H]AMPA to Ionotropic glutamate receptor AMPA in rat brain membranes; assay type: cell membranes
Rattus norvegicus [4] = species on record: Rattus norvegicus; experiment: Inhibition of stimulation of NE release by 100 uM of AMPA; assay type: functional

SMILES	pKa [1]	other results
Cc1cc([N+](=O)[O-])ccc1O	7.2	–
NC(Cc1ccccc1O)C(=O)O (centres undefined)	8.67	–
NC(Cc1ccc([N+](=O)[O-])c(O)c1[N+](=O)[O-])C(=O)O (centres undefined)	3.2	EC50 (Rattus norvegicus [2]): 74 µM; IC50 [3]: 4.9 µM
NC(Cc1ccc([N+](=O)[O-])c(O)c1)C(=O)O (centres undefined)	6.6	–
NC(Cc1cccc([N+](=O)[O-])c1O)C(=O)O (centres undefined)	6.6	–
Cc1cccc([N+](=O)[O-])c1O	7.7	–
NC(Cc1cc([N+](=O)[O-])ccc1O)C(=O)O (centres undefined)	6.4	–
N[C@@H](Cc1cc([N+](=O)[O-])c(O)c([N+](=O)[O-])c1)C(=O)O	3.2	–
NC(Cc1cc(O)c([N+](=O)[O-])cc1[N+](=O)[O-])C(=O)O (centres undefined)	3.8	–
NC(Cc1ccc(O)c([N+](=O)[O-])c1)C(=O)O (centres undefined)	6.8	–
NC(Cc1c([N+](=O)[O-])ccc(O)c1[N+](=O)[O-])C(=O)O (centres undefined)	3.6	–
NC(Cc1cc(O)ccc1[N+](=O)[O-])C(=O)O (centres undefined)	6.8	–
NC(Cn1cc([N+](=O)[O-])c(=O)[nH]c1=O)C(=O)O (centres undefined)	6.4	EC50 (Rattus norvegicus [2]): 15 µM
NC(Cc1cc([N+](=O)[O-])cc([N+](=O)[O-])c1O)C(=O)O (centres undefined)	6.4	IC50 [3]: 25 µM; IC50 (Rattus norvegicus [4]): 730 µM
O=C(O)C(O)Cc1cc([N+](=O)[O-])cc([N+](=O)[O-])c1O (centres undefined)	4.2	–
NC(Cn1ccc(=O)[nH]c1=O)C(=O)O (racemic)	9.3	–
Cc1onc(O)c1C[C@H](N)C(=O)O [(S)-AMPA]	–	EC50 (Rattus norvegicus [2]): 6.7 µM
O=[N+]([O-])c1cc2nc(O)c(O)nc2cc1[N+](=O)[O-] [DNQX]	–	IC50 (Rattus norvegicus [4]): 41 µM
C=C(C)[C@H]1CN[C@H](C(=O)O)[C@H]1CC(=O)O [KAINIC ACID]	–	EC50 (Rattus norvegicus [2]): 3.7 µM
